Test results: article PMC12627232 (MedComm, 2025)

Experiments:
[1] = In vivo pharmacokinetic study; conditions: Sprague-Dawley, rat, plasma, male SD rats
Description: The compound was prepared in a 1 mg/mL working solution using DMSO/solutol/saline. SD rats (6–8 weeks old, 180–200 g, male) were purchased from Beijing HFK Bioscience Co., Ltd. (Beijing, China) and fed in accordance with the guidelines for the care and use of laboratory animals of the ethical committee of Shandong University. The doses were 2.5 mg/kg (i.v.) and 10 mg/kg (i.g.), with three animals per treatment group. Blood samples were collected from the jugular vein at different time points using heparin sodium anticoagulation tubes. After anesthetizing rats with ether, blood samples were placed in an ice water mixture for 15 min, then centrifuged at 3000×g for 3 min to separate the plasma, and stored at −20°C. The LC–MS/MS was used to detect the concentration of the analyte at each time point, and the pharmacokinetic parameters were calculated using WinNolin8.2 software.

HeLa nuclear extract = assay: HDAC inhibition, HeLa nuclear extract; type: biochemical
Description: HDACs enzymatic assays were conducted according to our previous work. In detail, the HeLa nuclear extract, HDAC1 (BPS BIOSCIENCE INC, 50051), HDAC2 (BPS BIOSCIENCE Inc; 50052), HDAC3/NCOR1 complex (BPS BIOSCIENCE Inc; 50003), HDAC4 (BPS BIOSCIENCE Inc; 50004), HDAC5 (BPS BIOSCIENCE Inc; 50005), HDAC6 (BPS BIOSCIENCE Inc; 50006), HDAC7 (BPS BIOSCIENCE Inc; 50007), HDAC8 (BPS BIOSCIENCE Inc; 50008), HDAC9 (BPS BIOSCIENCE Inc; 50009), HDAC10 (BPS BIOSCIENCE Inc; 50010), or HDAC11 (BPS BIOSCIENCE Inc; 50011) was diluted to the proper concentrations according to the relative enzymatic activity and the linear range of the plate reader and mixed with different concentrations of drugs. Substrates (Boc‐Lys(acetyl)‐AMC for HeLa nuclear extract, Ac‐Leu‐Gly‐Lys (Tfa)‐AMC for HDAC4, HDAC5, HDAC6, HDAC7, HDAC9, HDAC10, and HDAC11, Boc‐Lys(triflouroacetyl)‐AMC for HDAC8 and Ac‐Leu‐Gly‐Lys(acetyl)‐AMC for HDAC1, HDAC2, HDAC3) were added to the mixture. The blank group was set to no enzyme or drug but contains substrates and the control group was set to no drug but contains substrates and enzymes to each 96‐well plate. After 30 min of incubation at 37°C, the mixture was terminated with 1 mg/mL trypsin and 3 µM TSA. After another 30 min, the fluorescence intensity was measured using a Varioskan plate reader at 360/460 nm. […] The inhibition curves and IC50 values were simulated and calculated using the log(inhibitor) versus response (three parameters) mode in GraphPad Prism software.

MDA-MB-231 = assay: CCK-8 antiproliferation assay; type: cell-based, human
Description: Cell lines purchased from the Cell Bank of Type Culture Collection of the Chinese Academy of Sciences (Shanghai, China) were passaged after resuscitation. […] The third to tenth passages of cells were used for experiments. […] After incubation, 20 µL CCK‐8 solution (MeilunBio) was added. Two hours later, absorption was measured by a Varioskan plate at 450 nm. Inhibition curves and IC50 values were simulated and calculated using the log(inhibitor) versus response (three parameters) mode via GraphPad Prism software.

HDAC9 = target: T1, HDAC9 (Homo sapiens, UniProt Q9UKV0); assay: HDACs enzymatic assay HDAC9; type: biochemical; conditions: Class IIa
T1 construct: purchased BPS BIOSCIENCE Inc 50009
Description: HDACs enzymatic assays were conducted according to our previous work. […] Substrates (Boc‐Lys(acetyl)‐AMC for HeLa nuclear extract, Ac‐Leu‐Gly‐Lys (Tfa)‐AMC for HDAC4, HDAC5, HDAC6, HDAC7, HDAC9, HDAC10, and HDAC11, Boc‐Lys(triflouroacetyl)‐AMC for HDAC8 and Ac‐Leu‐Gly‐Lys(acetyl)‐AMC for HDAC1, HDAC2, HDAC3) were added to the mixture. The blank group was set to no enzyme or drug but contains substrates and the control group was set to no drug but contains substrates and enzymes to each 96‐well plate. After 30 min of incubation at 37°C, the mixture was terminated with 1 mg/mL trypsin and 3 µM TSA. After another 30 min, the fluorescence intensity was measured using a Varioskan plate reader at 360/460 nm. […] The inhibition curves and IC50 values were simulated and calculated using the log(inhibitor) versus response (three parameters) mode in GraphPad Prism software.

MDA-MB-231 cells [2] = assay: Immunofluorescence of ac-H3; type: cell-based, human; conditions: 1 µM, 24 h
Description: Cells (10^5 cells per plate) were seeded in confocal dishes and incubated with drugs or DMSO (equal volume to experimental groups) for 24 h. The medium was removed, and cells were fixed with 4% polyoxymethylene solution for 30 min. The cells were treated with 0.2% Triton X‐100 for 10 min and 1% BSA for 1 h at room temperature. After that, cells were washed twice with TBST and incubated with anti‐H3 antibody (Cell Signal Technology; #13998) at 4°C overnight. When incubation finished, cells were washed five times with TBST and Cy3‐labeled goat anti‐rabbit IgG (Beyotime; #A0516) and DAPI solution (Solarbio) were added. After 1 h incubation and washing five times with TBST, cells were captured with Leica TCS SP8 super‐resolution laser scanning confocal microscope. The colocalization of ac‐H3 and DAPI was analyzed with ImageJ.

MC38 cells = assay: PD-L1 expression in MC38 cells; type: cell-based; conditions: 24 h
MDA-MB-231 cells [3] = assay: Colony formation assay; type: cell-based, human; conditions: 2 µM, 48 h
Description: The colony formation assay is performed by seeding 1000 MDA‐MB‐231 cells per well into 6‐well plates and allowing them to adhere overnight. […] Once colonies are visible (≥50 cells per colony), the medium is removed, and cells are gently washed with PBS, fixed with 4% paraformaldehyde for 15 min, and stained with Giemsa stain solution for 30 min. Excess stain is rinsed with water, and plates are air‐dried. Colonies are then imaged.

T1 sequence (Q9UKV0 whole entry): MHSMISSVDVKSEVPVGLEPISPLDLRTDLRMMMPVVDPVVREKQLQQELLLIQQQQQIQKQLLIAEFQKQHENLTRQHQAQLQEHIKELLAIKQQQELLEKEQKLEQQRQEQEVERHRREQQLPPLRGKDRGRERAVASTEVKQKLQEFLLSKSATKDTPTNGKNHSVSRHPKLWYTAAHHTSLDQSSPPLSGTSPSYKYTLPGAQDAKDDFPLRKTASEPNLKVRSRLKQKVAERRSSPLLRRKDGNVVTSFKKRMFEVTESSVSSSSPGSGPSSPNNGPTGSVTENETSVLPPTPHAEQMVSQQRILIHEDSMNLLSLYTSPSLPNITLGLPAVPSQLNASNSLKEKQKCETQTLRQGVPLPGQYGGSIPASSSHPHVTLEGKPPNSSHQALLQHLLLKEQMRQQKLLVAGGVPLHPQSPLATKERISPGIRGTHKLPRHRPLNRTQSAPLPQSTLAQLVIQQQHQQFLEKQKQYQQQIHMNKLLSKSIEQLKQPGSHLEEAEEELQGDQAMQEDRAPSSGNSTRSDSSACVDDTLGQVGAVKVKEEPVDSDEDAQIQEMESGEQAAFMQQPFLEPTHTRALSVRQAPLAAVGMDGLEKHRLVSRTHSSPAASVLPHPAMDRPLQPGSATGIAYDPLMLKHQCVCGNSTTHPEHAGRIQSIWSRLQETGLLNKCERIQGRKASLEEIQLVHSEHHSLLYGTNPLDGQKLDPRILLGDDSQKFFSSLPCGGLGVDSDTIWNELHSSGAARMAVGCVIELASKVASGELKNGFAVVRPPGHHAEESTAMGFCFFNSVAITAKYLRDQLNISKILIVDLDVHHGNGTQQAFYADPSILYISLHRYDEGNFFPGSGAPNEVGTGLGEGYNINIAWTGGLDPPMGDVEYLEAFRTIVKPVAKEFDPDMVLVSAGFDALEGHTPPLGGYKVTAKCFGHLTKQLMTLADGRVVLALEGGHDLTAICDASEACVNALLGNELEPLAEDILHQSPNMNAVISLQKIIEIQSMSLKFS

**Q.** With O=C(CCCCCCNC(=O)c1cc(OCCc2ccccc2)c2ccccc2n1)NO [SDFZ-8] as the compound, how does the AUC(0-inf) ([1]; iv, i.v. 2.5 mg/kg) read?
**A.** 3120 ± 242 ng·h/mL

**Q.** And the AUC(0-t) ([1]; iv, i.v. 2.5 mg/kg)?
**A.** 2730 ± 260 ng·h/mL

**Q.** And the Cmax ([1]; iv, i.v. 2.5 mg/kg)?
**A.** 1750 ± 498 ng/mL

**Q.** What about the Tmax ([1]; iv, i.v. 2.5 mg/kg) of the same compound?
**A.** 0.08 ± 0.01 h

**Q.** What about the half-life ([1]; iv, i.v. 2.5 mg/kg) of the same compound?
**A.** 2.29 ± 1.24 h

**Q.** And the bioavailability ([1]; oral, i.g. 10 mg/kg vs i.v. 2.5 mg/kg, read-out: F% (oral bioavailability))?
**A.** 26.1%

**Q.** What about the AUC(0-inf) ([1]; po, i.g. 10 mg/kg) of the same compound?
**A.** 3260 ± 663 ng·h/mL

**Q.** What about the AUC(0-t) ([1]; po, i.g. 10 mg/kg) of the same compound?
**A.** 3080 ± 206 ng·h/mL

**Q.** What about the Cmax ([1]; po, i.g. 10 mg/kg) of the same compound?
**A.** 659 ± 63.1 ng/mL

**Q.** What about the Tmax ([1]; po, i.g. 10 mg/kg) of the same compound?
**A.** 0.33 ± 0.14 h

**Q.** And the half-life ([1]; po, i.g. 10 mg/kg)?
**A.** 5.74 ± 1.51 h

**Q.** What about the IC50 (HeLa nuclear extract; mean ± SD of three determinations, read-out: HDAC inhibitory activity IC50 (HeLa extract)) of the same compound?
**A.** 10 nM

**Q.** What about the “HDAC inhibitory activity surpassing LBH-589” value (HeLa nuclear extract; versus LBH-589) of the same compound?
**A.** 2.5 fold

**Q.** What about the “HDAC inhibitory activity surpassing SAHA” value (HeLa nuclear extract; versus SAHA) of the same compound?
**A.** 28.6 fold

**Q.** What about the IC50 (MDA-MB-231; Homo sapiens, MDA-MB-231, 48 h treatment, CCK-8) of the same compound?
**A.** 470 ± 80 nM

**Q.** What about the “antiproliferation activity better than SAHA” value (MDA-MB-231; MDA-MB-231 cells, versus SAHA) of the same compound?
**A.** threefold

**Q.** What about the IC50 (HDAC9) of the same compound?
**A.** > 10000 nM

**Q.** What about the “immunofluorescence intensities of ac-H3” value (MDA-MB-231 cells [2]) of the same compound?
**A.** notably stronger than those of cells treated with SAHA

**Q.** And the “expression level of PD-L1” value (MC38 cells)?
**A.** increased

**Q.** And the “colony formation of MDA-MB-231” value (MDA-MB-231 cells [3])?
**A.** significantly inhibited
